Data published in patent US9566312B2, “Cyclic peptides and use as medicines” (priority 2012, dated 2017).
pIC50: −log10 of the molar value. Like-named read-outs stand apart in the source and are kept apart here. Starred links: 1 amine or outer side, 2 acyl side, 3 side chain; linkers in the order of their positions; H or OH if unused. Non-standard residues stand in square brackets, D forms with d. Residues, ends and D or L forms follow the SMILES beside them. X61 = C[C@@H]1CN(CCOC[C@@H](C)[C@@H](C(=O)[*:2])N(C)[*:1])[C@H](C)CO1; X27 = C[C@H](COCC(=O)N1CCN(C2CCOCC2)CC1)[C@@H](C(=O)[*:2])N(C)[*:1]; X75 = C[C@H](CCC(C)(C)OC(=O)N1CCN(C)CC1)[C@@H](C(=O)[*:2])N(C)[*:1]; X74 = C[C@H](CCN1CCN2C(=O)OC[C@@H]2C1)[C@@H](C(=O)[*:2])N(C)[*:1]; X45 = C[C@H](CCC(=O)N1CC2CCC(C1)O2)[C@@H](C(=O)[*:2])N(C)[*:1]; X73 = CO[C@H]1CCN(CCOC[C@@H](C)[C@@H](C(=O)[*:2])N(C)[*:1])C1; X68 = C[C@H](CCN1CCC(C#N)CC1)[C@@H](C(=O)[*:2])N(C)[*:1]; X32 = C[C@H](CN1CC2(COC2)C1)[C@@H](C(=O)[*:2])N(C)[*:1]; MeBmt = C/C=C/C[C@@H](C)[C@@H](O)[C@H](NC)C(=O)O; NMeL = CN[C@@H](CC(C)C)C(=O)O; NMeV = CN[C@H](C(=O)O)C(C)C; dNMeA = CN[C@H](C)C(=O)O; Abu = CC[C@H](N)C(=O)O

Key:
[1] = target: cyclophilin A (CypA) (Homo sapiens (Human), UniProt P62937); assay: Inhibitor binding to cyclophilin proteins by SPR, CypA; parameters: unit not given here; conditions: 1:1 binding model;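 also: Single-cycle kinetics on a Biacore T200, compound injected at several concentrations for 1 min each at 50 µL/min, then 10 min dissociation, in HEPES pH 7.4 buffer with 3% DMSO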
Sequence of cyclophilin A (CypA) (P62937 whole entry): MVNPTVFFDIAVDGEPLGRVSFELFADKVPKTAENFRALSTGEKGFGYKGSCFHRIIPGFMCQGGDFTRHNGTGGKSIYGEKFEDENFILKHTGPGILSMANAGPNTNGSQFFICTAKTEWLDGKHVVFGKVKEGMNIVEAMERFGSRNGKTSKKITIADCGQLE

[2] = target: cyclophilin B (CypB) (Homo sapiens (Human), UniProt P23284); assay: Inhibitor binding to cyclophilin proteins by SPR, CypB; parameters: unit not given here; conditions: 1:1 binding model
Sequence of cyclophilin B (CypB) (P23284 34-216): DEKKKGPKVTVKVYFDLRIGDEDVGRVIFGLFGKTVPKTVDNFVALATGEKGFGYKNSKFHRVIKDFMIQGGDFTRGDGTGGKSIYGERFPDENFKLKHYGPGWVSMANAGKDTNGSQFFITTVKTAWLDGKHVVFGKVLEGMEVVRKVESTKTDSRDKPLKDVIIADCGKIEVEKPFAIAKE
In short: (§1)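 Mono-biotinylated avi-tagged cyclophilins captured on a Biotin CAPture chip. Single-cycle kinetics at 50 μL/min, 1 min contacts, 10 min final dissociation, in 10 mM HEPES pH 7.4, 150 mM NaCl, 0.05% P20, 3% DMSO. kon, koff and KD from a 1:1 binding model.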

[3] = target: CypF (Homo sapiens (Human), UniProt P30405); assay: Inhibitor binding to cyclophilin proteins by SPR, CypF; conditions: 1:1 binding model
Sequence of CypF (P30405 30-207): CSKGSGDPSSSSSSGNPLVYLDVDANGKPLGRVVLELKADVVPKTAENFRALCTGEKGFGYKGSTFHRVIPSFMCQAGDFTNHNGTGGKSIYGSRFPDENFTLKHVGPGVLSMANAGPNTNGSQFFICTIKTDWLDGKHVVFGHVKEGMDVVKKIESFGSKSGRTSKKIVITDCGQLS
In short: as §1

[4] = system: genotype 1b subgenomic HCV replicon in Huh7.5 cells; format: cell-based, hepatitis C virus; conditions: read-out: RPLN-1b IC50
In short: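 Huh7.5 cells carrying genotype 1b subgenomic HCV replicon with renilla luciferase-neomycin reporter, in phenol red-free DMEM without G418. Luciferase measured after 72 h compound exposure relative to DMSO-treated cells; cytotoxicity (CC50) by Cell Titer-Glo.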

[5] = system: peripheral blood mononuclear cells (PBMC); assay: Anti-proliferative or immunosuppressive activity, BrdU incorporation in PHA-stimulated PBMC; format: cell-based; conditions: PHA 3 μg/ml, 60 hour compound treatment; read-out: EMV PBMC IC50
In short: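 Fresh PBMCs from two donors, 30,000 per well in X-VIVO 15 medium, stimulated with 3 μg/ml PHA to drive T-cell proliferation. Proliferation measured as BrdU incorporation into DNA by BrdU ELISA.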

[6] = target: organic anion transporting polypeptide 1B1 (OATP1B1) (Homo sapiens (Human), UniProt Q9Y6L6); assay: OATP assay in CHO-OATP1B1 cells;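 also: inhibition of probe substrate uptake into the cells, ten minutes exposure, accumulated substrate read by fluorescence once cells were lysed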
Sequence of organic anion transporting polypeptide 1B1 (OATP1B1) (Q9Y6L6 whole entry): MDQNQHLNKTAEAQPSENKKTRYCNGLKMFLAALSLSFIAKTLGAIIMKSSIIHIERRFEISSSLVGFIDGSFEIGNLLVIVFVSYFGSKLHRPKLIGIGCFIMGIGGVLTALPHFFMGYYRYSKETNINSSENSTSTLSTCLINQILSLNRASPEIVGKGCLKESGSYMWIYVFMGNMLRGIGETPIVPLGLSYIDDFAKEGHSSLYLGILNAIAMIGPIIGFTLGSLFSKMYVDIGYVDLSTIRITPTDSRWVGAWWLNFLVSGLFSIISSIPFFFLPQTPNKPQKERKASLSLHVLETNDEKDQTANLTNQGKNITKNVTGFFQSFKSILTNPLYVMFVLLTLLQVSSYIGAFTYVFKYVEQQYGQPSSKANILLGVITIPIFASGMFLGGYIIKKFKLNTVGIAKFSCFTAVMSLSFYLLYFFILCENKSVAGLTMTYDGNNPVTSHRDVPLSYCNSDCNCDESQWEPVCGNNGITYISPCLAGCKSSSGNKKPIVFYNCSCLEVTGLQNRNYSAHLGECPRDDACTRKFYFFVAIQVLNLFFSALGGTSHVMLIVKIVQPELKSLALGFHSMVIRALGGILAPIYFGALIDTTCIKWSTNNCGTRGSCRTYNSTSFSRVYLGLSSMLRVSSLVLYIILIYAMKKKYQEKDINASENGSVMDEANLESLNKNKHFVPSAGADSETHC

[7] = genotype 1b replicon, 72 h incubation

## C/C=C/C[C@@H](C)[C@@H](O)[C@H]1C(=O)N[C@@H](CC)C(=O)N(C)[C@H](C)C(=O)N(C)[C@@H]([C@H](C)COCCN2CC[C@H](OC)C2)C(=O)N[C@@H](C(C)C)C(=O)N(C)[C@@H](CC(C)C)C(=O)N[C@@H](C)C(=O)N[C@H](C)C(=O)N(C)[C@@H](CC(C)C)C(=O)N(C)[C@@H](CC(C)C)C(=O)N(C)[C@@H](C(C)C)C(=O)N1C [Compound 2.8.7, 3-[D-Ala]-4-[(2S,3S)-4-(2-((S)-3-methoxypyrrolidin-1-yl)ethoxy)-3-methyl-2-(methylamino)butanoyl]-cyclosporin] (cyclo(A[dA][NMeL][NMeL][NMeV][MeBmt][Abu][dNMeA][X73]V[NMeL]))
[1]
  CypA Kd: 0.6
[2]
  CypB Kd: 0.4
[3]
  CypF Kd: 0.3 nM
[4]; [7]
  pIC50: 7.35
[5]
  pIC50: 5.17
[6]
  pIC50: 5.30

## C/C=C/C[C@@H](C)[C@@H](O)[C@H]1C(=O)N[C@@H](CC)C(=O)N(C)[C@H](C)C(=O)N(C)[C@@H]([C@H](C)CCN2CCN3C(=O)OC[C@@H]3C2)C(=O)N[C@@H](C(C)C)C(=O)N(C)[C@@H](CC(C)C)C(=O)N[C@@H](C)C(=O)N[C@H](C)C(=O)N(C)[C@@H](CC(C)C)C(=O)N(C)[C@@H](CC(C)C)C(=O)N(C)[C@@H](C(C)C)C(=O)N1C [Compound 2.18.9, 3-[D-Ala]-4-[(2S,3R)-3-methyl-2-(methylamino)-5-((S)-3-oxotetrahydro-1H-oxazolo[3,4-a]pyrazin-7(3H)-yl)pentanoyl]-cyclosporin] (cyclo(A[dA][NMeL][NMeL][NMeV][MeBmt][Abu][dNMeA][X74]V[NMeL]))
[1]
  CypA Kd: 1.8
[2]
  CypB Kd: 2.7
[3]
  CypF Kd: 1 nM
[4]; [7]
  pIC50: 6.77
[5]
  pIC50: 5.04
[6]
  pIC50: 5.55

## C/C=C/C[C@@H](C)[C@@H](O)[C@H]1C(=O)N[C@@H](CC)C(=O)N(C)[C@H](C)C(=O)N(C)[C@@H]([C@H](C)CCC(=O)N2CC3CCC(C2)O3)C(=O)N[C@@H](C(C)C)C(=O)N(C)[C@@H](CC(C)C)C(=O)N[C@@H](C)C(=O)N[C@H](C)C(=O)N(C)[C@@H](CC(C)C)C(=O)N(C)[C@@H](CC(C)C)C(=O)N(C)[C@@H](C(C)C)C(=O)N1C [Compound 2.14.2, 3-[D-Ala]-4-[(2S,3R)-6-(8-oxa-3-azabicyclo[3.2.1]octan-3-yl)-3-methyl-2-(methylamino)-6-oxohexanoyl]-cyclosporin] (cyclo(A[dA][NMeL][NMeL][NMeV][MeBmt][Abu][dNMeA][X45]V[NMeL]))
[1]
  CypA Kd: 2.4
[2]
  CypB Kd: 0.9
[3]
  CypF Kd: 1 nM
[4]; [7]
  pIC50: 7.12
[5]
  pIC50: 5.17
[6]
  pIC50: 5.72

## C/C=C/C[C@@H](C)[C@@H](O)[C@H]1C(=O)N[C@@H](CC)C(=O)N(C)[C@H](C)C(=O)N(C)[C@@H]([C@H](C)CCC(C)(C)OC(=O)N2CCN(C)CC2)C(=O)N[C@@H](C(C)C)C(=O)N(C)[C@@H](CC(C)C)C(=O)N[C@@H](C)C(=O)N[C@H](C)C(=O)N(C)[C@@H](CC(C)C)C(=O)N(C)[C@@H](CC(C)C)C(=O)N(C)[C@@H](C(C)C)C(=O)N1C [Compound 2.12.2, 3-[D-Ala]-4-[(2S,3R)-3,6-dimethyl-2-(methylamino)-6-((4-methylpiperazine-1-carbonyl)oxy)heptanoyl]-cyclosporin] (cyclo(A[dA][NMeL][NMeL][NMeV][MeBmt][Abu][dNMeA][X75]V[NMeL]))
[1]
  CypA Kd: 22
[2]
  CypB Kd: 6.8
[3]
  CypF Kd: 10 nM
[4]; [7]
  pIC50: 6.74
[5]
  pIC50: 4.94
[6]
  pIC50: 5.33

## C/C=C/C[C@@H](C)[C@@H](O)[C@H]1C(=O)N[C@@H](CC)C(=O)N(C)[C@H](C)C(=O)N(C)[C@@H]([C@H](C)CCCN2CCC(OC)CC2)C(=O)N[C@@H](C(C)C)C(=O)N(C)[C@@H](CC(C)C)C(=O)N[C@@H](C)C(=O)N[C@H](C)C(=O)N(C)[C@@H](CC(C)C)C(=O)N(C)[C@@H](CC(C)C)C(=O)N(C)[C@@H](C(C)C)C(=O)N1C (stereo in doubt) [Compound 2.19.5, 3-[D-Ala]-4-[(2S,3R)-6-(4-methoxypiperidin-1-yl)-3-methyl-2-(methylamino)hexanoyl]-cyclosporin]
[1]
  CypA Kd: 0.7
[2]
  CypB Kd: 0.5
[3]
  CypF Kd: 0.4 nM
[4]; [7]
  pIC50: 7.10
[5]
  pIC50: 5.05
[6]
  pIC50: 5.37

## C/C=C/C[C@@H](C)[C@@H](O)[C@H]1C(=O)N[C@@H](CC)C(=O)N(C)[C@H](C)C(=O)N(C)[C@@H]([C@H](C)CN2CC3(COC3)C2)C(=O)N[C@@H](C(C)C)C(=O)N(C)[C@@H](CC(C)C)C(=O)N[C@@H](C)C(=O)N[C@H](C)C(=O)N(C)[C@@H](CC(C)C)C(=O)N(C)[C@@H](CC(C)C)C(=O)N(C)[C@@H](C(C)C)C(=O)N1C [Compound 2.5.16, 3-[D-Ala]-4-[(2S,3R)-3-methyl-2-(methylamino)-4-(2-oxa-6-azaspiro[3.3]heptan-6-yl)butanoyl]-cyclosporin] (cyclo(A[dA][NMeL][NMeL][NMeV][MeBmt][Abu][dNMeA][X32]V[NMeL]))
[1]
  CypA Kd: 1.4
[2]
  CypB Kd: 0.7
[3]
  CypF Kd: 0.7 nM
[4]; [7]
  pIC50: 8.00
[5]
  pIC50: 4.74
[6]
  pIC50: 5.47

## C/C=C/C[C@@H](C)[C@@H](O)[C@H]1C(=O)N[C@@H](CC)C(=O)N(C)[C@H](C)C(=O)N(C)[C@@H]([C@H](C)COCCN2C[C@@H](C)OC[C@H]2C)C(=O)N[C@@H](C(C)C)C(=O)N(C)[C@@H](CC(C)C)C(=O)N[C@@H](C)C(=O)N[C@H](C)C(=O)N(C)[C@@H](CC(C)C)C(=O)N(C)[C@@H](CC(C)C)C(=O)N(C)[C@@H](C(C)C)C(=O)N1C [Compound 2.8.4, 3-[D-Ala]-4-[(2S,3S)-4-(2-((2R,5R)-2,5-dimethylmorpholino)ethoxy)-3-methyl-2-(methylamino)butanoyl]-cyclosporin] (cyclo(A[dA][NMeL][NMeL][NMeV][MeBmt][Abu][dNMeA][X61]V[NMeL]))
[1]
  CypA Kd: 0.9
[2]
  CypB Kd: 0.7
[3]
  CypF Kd: 0.7 nM
[4]; [7]
  pIC50: 7.35
[5]
  pIC50: 4.97
[6]
  pIC50: 5.44

## C/C=C/C[C@@H](C)[C@@H](O)[C@H]1C(=O)N[C@@H](CC)C(=O)N(C)[C@H](C)C(=O)N(C)[C@@H]([C@H](C)COCC(=O)N2CCN(C3CCOCC3)CC2)C(=O)N[C@@H](C(C)C)C(=O)N(C)[C@@H](CC(C)C)C(=O)N[C@@H](C)C(=O)N[C@H](C)C(=O)N(C)[C@@H](CC(C)C)C(=O)N(C)[C@@H](CC(C)C)C(=O)N(C)[C@@H](C(C)C)C(=O)N1C [Compound 2.6.2, 3-[D-Ala]-4-[(2S,3S)-4-(2-(4-cyclohexylpiperazin-1-yl)-2-oxoethoxy)-3-methyl-2-(methylamino)butanoyl]-cyclosporin] (cyclo([MeBmt][Abu][dNMeA][X27]V[NMeL]A[dA][NMeL][NMeL][NMeV]))
[1]
  CypA Kd: 1.3
[2]
  CypB Kd: 0.7
[3]
  CypF Kd: 0.6 nM
[4]
  pIC50: 6.85
[5]
  pIC50: 4.76
[6]
  pIC50: 5.46

## C/C=C/C[C@@H](C)[C@@H](O)[C@H]1C(=O)N[C@@H](CC)C(=O)N(C)[C@H](C)C(=O)N(C)[C@@H]([C@H](C)CCN2CCC(C#N)CC2)C(=O)N[C@@H](C(C)C)C(=O)N(C)[C@@H](CC(C)C)C(=O)N[C@@H](C)C(=O)N[C@H](C)C(=O)N(C)[C@@H](CC(C)C)C(=O)N(C)[C@@H](CC(C)C)C(=O)N(C)[C@@H](C(C)C)C(=O)N1C [Compound 2.18.2, 3-[D-Ala]-4-[(2S,3R)-5-(4-cyanopiperidin-1-yl)-3-methyl-2-(methylamino)pentanoyl]-cyclosporin] (cyclo(A[dA][NMeL][NMeL][NMeV][MeBmt][Abu][dNMeA][X68]V[NMeL]))
[1]
  CypA Kd: 1.1
[2]
  CypB Kd: 0.7
[3]
  CypF Kd: 0.6 nM
[4]; [7]
  pIC50: 7.24
[5]
  pIC50: 5.14
[6]
  pIC50: 5.62
